The test deals with Avena fatua. Nature of the test: Pre-emergence herbicidal action, AVEFA. The format is in vivo. Particulars: comparative experiment, 20 g of a.i./ha. The text has this:
1. Pre-Emergence Herbicidal Action Against Harmful Plants Seeds of monocotyledonous and dicotyledonous weed plants and crop plants are laid out in sandy loam soil in wood-fiber pots and covered with soil. The compounds of the invention, formulated in the form of wettable powders (WP) or as emulsion concentrates (EC), are then applied to the surface of the covering soil in the form of an aqueous suspension or emulsion at a water application rate equating to 600 to 800 l/ha, with addition of 0.2% wetting agent. After the treatment, the pots are placed in a greenhouse and kept under good growth conditions for the trial plants. The damage to the test plants is scored visually after a test period of 3 weeks by comparison with untreated controls (herbicidal activity in percent (%): 100% activity=the plants have died, 0% activity=like control plants). […] The tables below illustrate, in an exemplary manner, the post-emergence herbicidal action of the compounds according to the invention, the herbicidal activity being stated in percent. [table] In the experiments that follow, herbicidal action of numerous inventive compounds and the known compounds that are structurally closest from D1 (WO 2012/028579 A1) and D2 (WO 2018/202535 A1) were compared under the above-specified conditions by the pre-emergence and post-emergence method. […]

For the compound `CSCc1c(C(F)F)ccc(C(=O)Nc2nnnn2C)c1Cl` [Example 1-320], the “Herbicidal action against AVEFA” value is on record as 70.

The values are drawn from patent US12492173B2, “Herbicidal substituted N-tetrazolyl aryl carboxamides” (Bayer Aktiengesellschaft, priority 2019, dated 2025).
